Literature values in patent publication US20190167749A1, “THE OLEO GEL COMPOSITION AND DELIVERY SYSTEM WITH ACTIVE COMPOUNDS FROM CANNABIS SATIVA AND MENTHA ARVENSIS FOR REDUCTION OF INFLAMMATION AND PAIN IN DEEP TISSUES” (UAB SATIMED, priority 2016, published 2019).
Like-named read-outs stand apart in the source and are kept apart here.

Test system: collagen-induced arthritis

C=C(C)[C@@H]1CCC(C)=C[C@H]1c1c(O)cc(CCCCC)cc1O [CBD, cannabidiol]
progression of arthritis (acute and chronic relapsing CIA, i.p. or oral administration): effectively blocked progression of arthritis | dose with optimal effect (bell-shaped dose dependency) (i.p.): 5 mg/kg per day | dose with optimal effect (bell-shaped dose dependency) (orally): 25 mg/kg per day
